Data published in patent publication US20250170239A1, “CELLULAR REPROGRAMMING BY TARGETING THE GOLGI APPARATUS” (MUSC Foundation for Research Development, priority 2023, published 2025).

How the values were obtained:
Pmel T cells [1] = tested on: Pmel T cells
Protocol: On day 3, the cells were collected for RNA-sequencing analysis (n=3 independent samples). (FIG. 14A) Principle component analysis (PCA) of control versus H2S-treated samples. […] (FIG. 14E) Schematic of experimental design for cytokine and translation assays. (FIG. 14F) Pmel CD8+ T cells were activated for 3 days with gp100 and IL2+/−0.5 mM GYY4137. On day 3, the cells were washed and re-stimulated with gp100 for 4 hours, followed by measurement of cytokine production via FACS. (FIG. 14G) Active protein translation was assessed using Click-iT Plus OPP Alexa Fluor 647 Protein Synthesis Assay Kit (ThermoFisher) (n=3 independent samples) in Pmel T cells after re-stimulation (n=3 independent samples). (FIG. 14H) Levels of EIF2a, phosphorylated 4EBP1, and phosphorylated rS6 evaluated via FACS in Pmel T cells after re-stimulation (n=4 independent samples). (FIG. 14I) Pmel CD8+ T cells were activated for 2 days with gp100 and IL2 followed by transduction with either control lentivirus or CBS-expressing lentivirus. On day 5, the cells were washed and re-stimulated with gp100 for 4 hours. Quantification of protein translation assessed using Click-iT Plus OPP Alexa Fluor 647 Protein Synthesis Assay Kit and quantification intracellular cytokines assessed using FACS (n=3 independent samples). MFI represents mean fluorescence intensity.
Pmel T cells were re-stimulated with gp100 peptide (0.1 μg/mL) and Click-iT™ Plus OPP Alexa Fluor™ 647 Protein Synthesis Assay Kit (ThermoFisher Scientific #C10458) was used to measure protein translation using flow cytometry following the manufacturer's protocol.

Pmel T cells [2] = conditions: H2S treated vs control
Protocol: Cells were treated+/−H2S for 3 days of activation followed by 3 days of expansion. For analysis of differentially reactive cysteine residues, the sample preparation and analysis were as described by Gottlieb et al. with minor modifications.72 Cells were lysed in freshly made 9 M urea, 50 mM Tris pH 8 buffer with 100 units/mL Universal Nuclease (Thermo Fisher, Pierce cat #88702). To label free thiols, lysis buffer was supplemented with either 55 mM of stable isotope labeled light (I12C2ONH4) or heavy (I13CD213CONH2) iodoacetamide (Sigma, cat #721328) for control or H2S treated cells, respectively. Equal amounts of heavy or light labeled proteins from 3 biological replicates were combined and reducible thiols were reduced with 70 mM dithiothreitol for 45 min at 25° C. […] Two μg aliquots of peptides from each fraction, obtained using ZipTips with 0.6 μL C18 resin (Millipore, Burlington, MA cat #ZTC18S096), were analyzed by LC-MS/MS on an Easy-nLC 1200 coupled to a Orbitrap Fusion Lumos MS (Thermo Scientific, Waltham, MA). […] Ions were detected in the orbitrap. […]
To control for changes in protein expression, an aliquot of each uncombined, labeled protein sample was analyzed using a label free proteomic approach (MaxQuant LFQ). Proteins were digested as above, and peptides were analyzed using an U3000 nano LC system coupled to an Orbitrap Elite MS (Thermo Scientific). […]

Sirt1 = conditions: H2S-treated vs control T cells
Protocol: (FIG. 18C) NAD+ and nicotinamide quantification from metabolomics dataset. (FIG. 18D) SIRT1 deacetylase activity in activated Pmel T cells (means of normalized OD values). (FIGS. 18E and 18F) Pmel T cells were activated with gp100 for 3 days in the presence of vehicle, GYY4137 (0.5 mM), or GYY4137+sirt1 inhibitor EX527 (10 μM). (FIG. 18E) Nuclear and cytoplasmic protein fractions were isolated and western blot analysis was performed to determine relative expression of nuclear and cytoplasmic Foxo1 (n=3). (FIG. 18F) Expression of CD62L and CD44 analyzed by FACS (n=3). (FIG. 18G) Splenocytes from wildtype and Cbs-knockout mice+/−GYY4137 activated with anti-CD3 and anti-CD28 antibodies followed by intranuclear staining for Foxo1. (FIG. 18H) Pmel T cells activated and expanded for metabolic flux analysis. Quantification of oxygen consumption rate (OCR), spare respiratory capacity (SRC), maximal respiration, and basal respiration (n=10 experimental replicates representative of 3 separate experiments). (FIG. 18I) Pmel T cells activated and expanded to day 5 for characterization of mitochondria using FACS, quantified by MFI values for mitoFM Deep Red, TMRM, and mitoSOX dyes (n=4). […] Shown is the quantification of mean oxygen consumption rate (OCR), spare respiratory capacity (SRC), maximal respiration, and basal respiration.

Pmel CD8+ T cells = assay: Re-stimulation with gp100 and FACS cytokine analysis; type: cell-based, mouse; conditions: 0.5 mM GYY4137 3 days, re-stimulated with gp100
Source text: The impact of H2S on T cell effector function was next determined. Pmel CD8+ T cells were activated and expanded with standard culture conditions or with the addition of the H2S donor and subsequently re-stimulated with gp100 cognate antigen (FIG. 14E). […] Given the importance of protein translation in maintaining a robust anti-tumor response and the repression of T cell translation that occurs in the TME (Riesenberg B. P., et al., 2022, bioRxiv, 2022.01.31.478547; Marchingo J. M., et al., 2022, Cell Mol Immunol., 19(3):303-315), it was determined if H2S influences protein translation.

Cbs-KO T cells = Cbs-KO T cells activated with anti-CD3/anti-CD28 with or without H2S
human PBMCs = conditions: vehicle control or 0.5 mM GYY4137
Protocol: (FIG. 21A) Levels of intracellular glutathione assessed using FACS by employing ThiolTracker Violet dye in control CD19 CAR-T cells or CAR-T cells overexpressing Cbs (CbstdCD19-CAR-T) (n=3). (FIG. 21B) 12 hour Thapsigargin (700 nM) treatment was used to induce ER stress in WT T cells, Cbs-KO T cells, and Cbs-KO T cells+H2S. Levels of phosphorylated PERK were assessed by FACS (n=3). (FIG. 21C) Pmel T cells were treated with either Thapsigargin (700 nM) or Monensin (1 mM) for 12 hours, followed by staining for phosphorylated PERK (p-PERK) and GM130 to assess ER stress and Golgi stress, respectively (n=4). (FIG. 21D) Activated Pmel T cells were treated for 12 hours with either vehicle control or 1 mM Monensin (“+Golgi stress”) before being stained for giantin to assess Golgi dispersion. […] (FIG. 21E) Representative confocal microscopy images of mitochondria (Tom20) and Golgi (giantin) in human PBMCs treated with vehicle control or 0.5 mM GYY4137.
Alexa Fluor 488 (anti-Giantin) and Alexa Fluor 647 (anti-TOMM20) fluorescence were imaged in a Zeiss LSM 880 NLO inverted laser scanning confocal microscope (Thornwood, NY) using a 63× 1.4 N.A. plan-apochromat oil immersion lens. Alexa Fluor 488 and Alexa Fluor 647 were excited at 488 nm and 633 nm, respectively. Emitted light was detected with an Airyscan super-resolution detector at BP 495-550 nm for Giantin label and LP 654 nm for TOMM20. […]

## C1COCCN1.COc1ccc(P(=S)(S)N2CCOCC2)cc1 (stereo not drawn) [GYY4137]
Pmel T cells [1]; FACS after re-stimulation
  phosphorylation of 4EBP1: increased phosphorylation of 4EBP1
  total EIF2α and phosphorylated S6 ribosomal protein: increased total levels of EIF2α and phosphorylated levels of S6 ribosomal protein
Pmel T cells [1]; upon re-stimulation with cognate antigen
  overall protein translation (OPP incorporation): significantly enhanced upregulation of overall protein translation
Pmel T cells [2]
  free thiols / abundance of ER proteins Prdx4, Ero1, MANF1, Rp17a: enhanced abundance or an increase in the extent of free thiols
  free thiols at cysteine 54 in Prdx4: increase in free thiols at cysteine 54 in Prdx4
Sirt1
  Sirt1 activity: increased Sirt1 activity
Pmel CD8+ T cells
  Granzyme B and CD107 expression: increased levels of cytolytic molecule Granzyme B and CD107 expression
  secretion of effector cytokines TNF-α and IFN-γ: enhanced secretion of effector cytokines TNF-α, and IFN-γ
Cbs-KO T cells; Cbs-KO T cells +/− GYY4137
  expression of Foxo1 (intranuclear staining): restored
Cbs-KO T cells; Cbs-KO T cells, 12 hour Thapsigargin (700 nM)
  ER stress (pPERK): reduced
Cbs-KO T cells; H2S added to Cbs-KO T cells
  Tcm fraction: restoration of the Tcm fraction
Human PBMCs
  Golgi organization (giantin, confocal): more compact Golgi organization
